Data set [1] has as its system Plasmodium falciparum. Nature of the data set: Antiplasmodial activity against chloroquine sensitive Plasmodium falciparum FCB1-R/Colombia. In kind it is functional, organism-based.
For data set [2], the system named is Plasmodium falciparum. Nature of the data set: Antiplasmodial activity against chloroquine sensitive Plasmodium falciparum FCA 20/Ghana. The data set is classed as functional, organism-based. The settings on record: Plasmodium falciparum, FCA 20/Ghana.
Data set [3] relates to Plasmodium falciparum. Nature of the data set: Antiplasmodial activity against chloroquine sensitive Plasmodium falciparum W2/Indochina. The data set is classed as functional, organism-based.
A short description of data set [4]: Cytotoxicity against human MRC5 cells. The data set is classed as toxicity, cell-based.
For data set [5], the system named is Plasmodium falciparum. The data set is described as follows: Antimalarial activity against Plasmodium falciparum W2. The data set is classed as functional, organism-based.
The subject of data set [6] is Plasmodium falciparum. The data set is described as follows: Antimalarial activity against Plasmodium falciparum D6. In kind it is functional, organism-based.
The next data set has as its system Plasmodium. Nature of the data set: Antimalarial activity against Plasmodium. In kind it is functional, organism-based.
Data set [7] deals with Plasmodium falciparum. Nature of the data set: Antimalarial activity against chloroquine sensitive Plasmodium falciparum K1. In kind it is functional, organism-based.
The test system of data set [8] is Plasmodium falciparum. The data set is described as follows: Antimalarial activity against chloroquine sensitive Plasmodium falciparum 3D7. In kind it is functional, organism-based.
Data set [9] is described as follows: Selectivity index, ratio of IC50 for rat L6 cells to IC50 for Plasmodium falciparum K1. In kind it is toxicity. The settings on record: L6 cells versus Plasmodium falciparum K1, read-out: Ratio IC50.
The test system of data set [10] is Plasmodium falciparum. Nature of the data set: Antimalarial activity against Plasmodium falciparum K1. The data set is classed as functional, organism-based.
The subject of another data set is Trypanosoma brucei. Nature of the data set: Antitrypanosomal activity against Trypanosoma brucei rhodesiense STIB 900. The data set is classed as functional, organism-based.
The subject of the next data set is Leishmania donovani. Nature of the data set: Antileishmanial activity against Leishmania donovani MHOM-ET-67/L82. In kind it is functional, organism-based.
The nature of data set [11]: Cytotoxicity against rat L6 cells assessed as reduction in cell viability. The data set is classed as toxicity, cell-based.
The next data set concerns Trypanosoma cruzi. Nature of the data set: Antitrypanosomal activity against Trypanosoma cruzi Tulahuen C2C4. The data set is classed as functional, organism-based.
Data set [12] deals with Plasmodium falciparum. The data set is described as follows: Antiplasmodial activity against chloroquine sensitive Plasmodium falciparum K1. In kind it is functional, organism-based.
Data set [13] concerns Plasmodium falciparum. Nature of the data set: Antiplasmodial activity against GHA chloroquine sensitive Plasmodium falciparum. The data set is classed as functional, organism-based.
Data set [14] has as its system Plasmodium falciparum. Nature of the data set: Antiplasmodial activity against chloroquine sensitive Plasmodium falciparum FCCI-HN assessed as decrease in parasitemia level incubated for 24 hrs by Giemsa staining method. In kind it is functional, organism-based.
Data set [15] deals with Plasmodium falciparum. Nature of the data set: Antimalarial activity against Plasmodium falciparum NF54 assessed as delayed-death phenotype incubated 72 to 96 hrs by SYBR green staining method. The data set is classed as functional, organism-based.
The test system of data set [16] is Plasmodium falciparum. Nature of the data set: Antimalarial activity against Plasmodium falciparum. The data set is classed as functional, organism-based.
For data set [17], the system named is Plasmodium falciparum. Nature of the data set: Antimalarial activity against chloroquine sensitive Plasmodium falciparum FcM29-Cameroon in human RBC. In kind it is functional, organism-based. The settings on record: Erythrocyte.
Data set [18] relates to Plasmodium falciparum. Nature of the data set: Antimalarial activity against Plasmodium falciparum incubated for 72 hrs by SYBR green I-based assay. The data set is classed as functional, organism-based.
Where [19] appears, read: Plasmodium falciparum, W2/Indochina.

pEC50, pIC50: −log10 of the molar value. ≈ marks a conversion by molar mass, not a printed value. Where “and” joins values, the source holds several entries; their conditions need not be identical. Equal entries are not always repeated. Bounds are passed on as bounds.

As a reminder, the pIC50 is the IC50 on a negative log10 scale, so that one unit is a factor of ten. The term IC50 denotes the concentration that inhibits the measured activity by half. The term pEC50 denotes the EC50 on a negative log10 scale, so that one unit is a factor of ten.

`C/C=C1\CN2CCc3c([nH]c4ccccc34)[C@@H]2C[C@@H]1Cc1nccc2c1[nH]c1ccccc12`: the values for the pIC50 in the data set on Plasmodium falciparum [1], with Plasmodium falciparum [2] and with Plasmodium falciparum [3] (setting [19]) were over 5.70, 5.82 and 6.23, respectively.

The compound `Cn1c2c(c3ccccc31)C[C@@H]1C(=O)N([C@@H]3CCN(Cc4ccccc4)C3)CC(=O)N1[C@@H]2c1ccc2c(c1)OCO2` showed a negative-log IC50 (pIC50) in [4] of under 4.19.

Regarding `Oc1cccc2c1[nH]c1c(C3=C[C@@]4(O)CC/C=C\CCCCN5CC[C@@H]3[C@]3(C[C@@H]6/C=C\CCCCN6[C@H]34)C5)nccc12`, the values for the half-maximal inhibitory concentration (IC50) in the data set with Plasmodium falciparum [5], in the data set on Plasmodium falciparum [6] and with Plasmodium were 0.008 µg/mL (≈ 0.0142 µM), 0.006 µg/mL (≈ 0.0106 µM) and 0.0061 µg/mL (≈ 0.0108 µM), respectively.

Compound `O[C@]12C=C[C@@H]3CCN(CCCCCCCC1)C[C@@]31C[C@@H]3CCCCCCN3[C@H]12` returned an IC50 in the data set with Plasmodium falciparum [6] of 0.082 µg/mL (≈ 0.212 µM).

In the case of `C=C[C@H]1CN2CCc3c([nH]c4ccccc34)[C@@H]2C[C@@H]1CC1c2[nH]c3ccccc3c2CCN1C` (some centres undefined), the pIC50 was 5.70 with Plasmodium falciparum [1], 5.60 in the data set with Plasmodium falciparum [2] and 5.63 with Plasmodium falciparum [3] (setting [19]).

Turning to `COC(=O)c1cc2c3c(c1)c1ccccc1n3C=C(C)OC2CC=C(C)C` (centres undefined), the pIC50 with Plasmodium falciparum [7] and in the data set with Plasmodium falciparum [8] was under 5.30 in each case.

For the compound `Brc1ccc2[nH]c3c[n+](Cc4cccc5ccccc45)ccc3c2c1`, the selectivity ratio in data set [9] was found to be 11. In addition, the pIC50 in the data set on Plasmodium falciparum [10] is 6.32; in the data set with Trypanosoma brucei it was 5.39; with Leishmania donovani it was 4.75; in data set [11], 5.29; with Trypanosoma cruzi it was 5.12.

For `C=C(CC1OC(C)=Cn2c3ccccc3c3cc(C(=O)OC)cc1c32)C(=O)OC` (centres undefined), the pIC50 in the data set on Plasmodium falciparum [7] was 6.14; in the data set with Plasmodium falciparum [8] it was 6.24.

Consider `[O-][N+]12CCCC/C=C\[C@H]1C[C@]13C[N@@+]4([O-])CCCC/C=C\CC[C@](O)(C=C[C@@H]1CC4)[C@@H]32` (some centres undefined), for which the IC50 with Plasmodium falciparum [6] turned out to be 0.017 µg/mL (≈ 0.041 µM).

With `CCCc1cccc(-[n+]2ccc3c(c2)[nH]c2ccc(Br)cc23)c1`, the selectivity ratio in data set [9] worked out at 60. For the same compound, the pIC50 is 6.34 with Plasmodium falciparum [10]; 5.35 in the data set on Trypanosoma brucei; 4.69 with Leishmania donovani; 4.56 in data set [11]; 4.90 in the data set on Trypanosoma cruzi.

In the data set on Plasmodium falciparum [6], `O[C@]12C=C[C@@H]3CCN(CCCC/C=C\CC1)C[C@@]31C[C@@H]3CCCCCCN3[C@H]12` yielded a half-inhibitory concentration (IC50) of 0.2 µg/mL (≈ 0.52 µM).

Take `C=C[C@H]1CN2CCc3c([nH]c4c([C@@H]5CCCN5C)c(O)ccc34)[C@@H]2C[C@@H]1CC1c2[nH]c3ccccc3c2CCN1C` (some centres undefined): the negative-log IC50 (pIC50) with Plasmodium falciparum [1] is over 6.30; with Plasmodium falciparum [2], 6.92; with Plasmodium falciparum [3] (setting [19]), 6.82.

In the data set with Plasmodium falciparum [12], `CC(=O)OC1=CO[C@@H](O[C@@H]2O[C@H](CO)[C@@H](O)[C@H](O)[C@H]2O)[C@H]2[C@@H]1C[C@@]13O[C@@H]2CN1CCC1c2ccccc2NC13` (some centres undefined) gave a pIC50 of 5.17.

Take `CC(C)(C)OC(=O)CC[C@@H]1NC(=O)[C@H]2Cc3c([nH]c4ccccc34)C(c3ccc4c(c3)OCO4)N2C1=O` (some centres undefined): the pIC50 in data set [4] was under 4.19; with Plasmodium falciparum [13] it was 4.22.

Take `C/C=C(/CO[C@@H]1O[C@H](CO)[C@@H](O)[C@H](O)[C@H]1O)c1cc2n(c(=O)c1CO)CCc1c-2[nH]c2ccccc12`: the pIC50 with Plasmodium falciparum [14] is 5.01.

As to `COC(=O)c1cc2c3c(c1)c1ccccc1n3C=C(C)OC2C1C=CCCC1` (centres undefined), the pIC50 with Plasmodium falciparum [7] is under 5.30; with Plasmodium falciparum [8], 5.79.

On to `O=C1N[C@@H](COCc2ccccc2)C(=O)N2C(c3ccc4c(c3)OCO4)c3[nH]c4ccccc4c3C[C@H]12` (some centres undefined), for which the pIC50 (in data set [4]; with Plasmodium falciparum [13]) was under 4.19 in each case.

Take `COC(=O)c1cc2c3c(c1)c1cc(Cl)ccc1n3C=C(C)OC2C/C=C(\C)CCC=C(C)C` (centres undefined): the pIC50 was under 5.30 in the data set with Plasmodium falciparum [7] and 5.81 with Plasmodium falciparum [8].

`O=c1c(O[C@@H]2OC[C@](O)(CO[C@@H]3O[C@H](CO)[C@@H](O)[C@H](O)[C@H]3O)[C@H](O)[C@H]2O)cc2nccc3c4ccccc4n1c23` gave a negative logarithm of the IC50 (pIC50) in the data set on Plasmodium falciparum [12] of 4.60.

As to `C=CCC1OC(C)=Cn2c3ccc(Cl)cc3c3cc(C(=O)OC)cc1c32` (centres undefined), the pIC50 in the data set with Plasmodium falciparum [7] and in the data set with Plasmodium falciparum [8] was under 5.30 throughout.

For the compound `Brc1cccc2c1[nH]c1c[n+](Cc3cccc4ccccc34)ccc12`, the selectivity ratio in [9] came out at 7. Also, the negative-log IC50 (pIC50) with Plasmodium falciparum [10] was 6.30; in the data set with Trypanosoma brucei it was 5.36; in the data set with Leishmania donovani, 4.33; in data set [11], 5.43; in the data set with Trypanosoma cruzi it was 5.10.

On to `NCCCC[C@H]1NC(=O)[C@H]2Cc3c([nH]c4ccccc34)C(c3ccc4c(c3)OCO4)N2C1=O` (some centres undefined), for which the values for the negative-log IC50 (pIC50) (in data set [4]; in the data set with Plasmodium falciparum [13]) were under 4.19 and 5.40, respectively.

Consider `COC(=O)c1cc2c3c(c1)c1ccccc1n3C=C(C)OC2C1=CCCC=C1` (centres undefined), for which the pIC50 in the data set on Plasmodium falciparum [7] and in the data set with Plasmodium falciparum [8] was under 5.30 in each case.

With `C/C=C1/COC(=O)c2c1cc1n(c2=O)CCc2c-1[nH]c1c(O[C@@H]3O[C@H](CO)[C@@H](O)[C@H](O)[C@H]3O)cccc21`, in the data set on Plasmodium falciparum [14], the negative logarithm of the IC50 (pIC50) was 4.38.

For `O=C1N[C@@H](Cc2c[nH]c3ccccc23)C(=O)N2C(c3ccc4c(c3)OCO4)c3[nH]c4ccccc4c3C[C@H]12` (some centres undefined), the values for the negative-log IC50 (pIC50) (in data set [4]; in the data set with Plasmodium falciparum [13]) were 4.46 and 4.60, respectively.

On to `C/C=C1\CN2CCc3c([nH]c4ccccc34)[C@@H]2C[C@@H]1CC1=NCCc2c1[nH]c1ccccc21`, for which the values for the pIC50 in the data set on Plasmodium falciparum [1], in the data set on Plasmodium falciparum [2] and in the data set with Plasmodium falciparum [3] (setting [19]) were over 5.70, 6.07 and 7.49, respectively.

For `O=C(O)C1Cc2c([nH]c3ccccc23)C(c2ccc(Cl)cc2Cl)N1` (centres undefined), the pIC50 in the data set with Plasmodium falciparum [15] is 3.68.

For `C[n+]1ccc2c(c1)[nH]c1ccc(Br)cc12`, the negative-log IC50 (pIC50) in the data set with Leishmania donovani is under 3.65.

Regarding `CC1(C)Cc2c([nH]c3ccccc23)C2(N1)C(=O)Nc1ccc(Cl)cc12` (racemic), the negative logarithm of the IC50 (pIC50) in the data set on Plasmodium falciparum [16] was 8.57.

Consider `CC1C2=CN3CCc4c([nH]c5ccc(O)cc45)C3CC2CC2C3C(CCN2C)c2ccccc2N13` (stereo in doubt; 34), for which the values for the pIC50 in the data set on Plasmodium falciparum [1], in the data set with Plasmodium falciparum [2] and in the data set on Plasmodium falciparum [3] were 5.70, 4.90 and 5.34, respectively.

As for `COC(=O)C1=CO[C@@H](C)[C@@H]2CN3CCc4c([nH]c5ccc(OC)cc45)[C@@H]3C[C@H]12` [ARICINE], the IC50 with Plasmodium falciparum [17] was 0.3 µg/mL and 690 nM.

`COC(=O)[C@@H]1[C@H]2C[C@H]3c4[nH]c5ccccc5c4CCN3C[C@@H]2CC[C@@H]1O` [YOHIMBINE]: in the data set on Plasmodium falciparum [18], the pEC50 was under 4.30.

These data come from ChEMBL document CHEMBL5096184, “Structure activity relationship in β-carboline derived anti-malarial agents” (Eur J Med Chem, 2021).
